# In patent US4251628A, “Substrates for angiotensin converting enzyme” (priority 1978, dated 1981):
# Like-named read-outs stand apart in the source and are kept apart here. Ends that are not written are not given here. Peptide text beside a SMILES is read from it.
# Experiments:
# [1] = target: T1, angiotensin converting enzyme (ACE) (Homo sapiens, UniProt P12821); assay: Hydrolysis of ^3H-BenzoylProPheArg by normal human serum: effect of various compounds; assay type: biochemical; conditions: ^3H-BenzoylProPheArg substrate
# T1 construct: Serum was prepared from fresh whole blood by standard techniques; from tissue; host or cells: serum (unfractionated)
# T1 sequence (P12821 30-1232 limits assumed): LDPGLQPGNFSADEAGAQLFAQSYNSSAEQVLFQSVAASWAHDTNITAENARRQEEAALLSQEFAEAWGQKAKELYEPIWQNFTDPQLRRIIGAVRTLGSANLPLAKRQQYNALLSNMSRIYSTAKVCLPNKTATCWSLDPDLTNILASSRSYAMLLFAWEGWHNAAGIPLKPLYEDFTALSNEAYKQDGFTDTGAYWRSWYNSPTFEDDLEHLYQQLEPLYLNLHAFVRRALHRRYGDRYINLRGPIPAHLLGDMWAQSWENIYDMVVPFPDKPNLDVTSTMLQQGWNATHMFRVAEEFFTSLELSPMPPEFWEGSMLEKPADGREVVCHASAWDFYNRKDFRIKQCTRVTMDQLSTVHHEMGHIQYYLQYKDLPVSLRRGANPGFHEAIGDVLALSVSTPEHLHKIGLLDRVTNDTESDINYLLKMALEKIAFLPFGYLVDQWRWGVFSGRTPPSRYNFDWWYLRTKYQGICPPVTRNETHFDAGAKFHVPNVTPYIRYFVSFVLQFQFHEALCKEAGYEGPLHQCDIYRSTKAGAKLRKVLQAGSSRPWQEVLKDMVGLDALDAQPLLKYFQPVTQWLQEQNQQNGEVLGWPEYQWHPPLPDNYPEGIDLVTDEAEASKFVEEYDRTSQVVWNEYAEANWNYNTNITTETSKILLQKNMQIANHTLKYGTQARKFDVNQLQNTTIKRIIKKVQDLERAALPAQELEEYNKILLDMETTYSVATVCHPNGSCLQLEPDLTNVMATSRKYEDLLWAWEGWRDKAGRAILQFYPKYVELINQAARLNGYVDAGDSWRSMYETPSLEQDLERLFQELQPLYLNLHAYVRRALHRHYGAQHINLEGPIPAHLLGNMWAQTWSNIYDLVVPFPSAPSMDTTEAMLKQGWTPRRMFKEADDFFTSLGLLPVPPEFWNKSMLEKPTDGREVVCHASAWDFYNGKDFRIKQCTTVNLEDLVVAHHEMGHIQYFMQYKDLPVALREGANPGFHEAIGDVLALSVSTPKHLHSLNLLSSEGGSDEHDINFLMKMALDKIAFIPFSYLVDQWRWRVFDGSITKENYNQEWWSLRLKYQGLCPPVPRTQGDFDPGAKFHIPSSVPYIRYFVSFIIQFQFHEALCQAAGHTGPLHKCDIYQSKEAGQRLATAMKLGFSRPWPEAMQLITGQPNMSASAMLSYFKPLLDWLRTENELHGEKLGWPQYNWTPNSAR
# Protocol: Hydrolysis of […] ^3 H-BenzoylProPheArg using the standard reaction procedure of Example 1 with normal human serum as the ACE source was measured in the absence and in the presence of competing substrates and an inhibitor.
# [2] = target: T2, serum angiotensin converting enzyme (ACE) (Homo sapiens, UniProt P12821); assay: biochemical; assay type: biochemical; conditions: for ACE Activity as % of control: 60 min; for Mode of inhibition (in words): ACE catalyzed hydrolysis of ^3H-HipGlyGly
# T2 construct: the activity observed with the present assay method in human serum is identical to ACE; from tissue; host or cells: human serum (unfractionated)
# T2 sequence (P12821 30-1232 limits assumed): as above
# Protocol: The reaction buffer contains 0.05 M Hepes, 0.1 M sodium chloride and 0.6 M sodium sulphate at pH 8.0. (Pepes is N-2-Hydroxyethyl piperazine N'-2-ethane sulfonic acid.) The substrate, ^3 H-HipGlyGly was dissolved in reaction buffer at a concentration of 16 mM and a specific radioactivity of about 0.15 millicuries/millimole. Serum was prepared from fresh whole blood by standard techniques. […] Hemolyzed samples were not used in the assay. […] For the assay, 50 μl. of serum was diluted with 200 μl. of reaction buffer. All the reactions were carried out in glass tubes due to the potentially destructive action of ethyl acetate on plastic.
# (§1) The reaction mixture was composed of 50 μl. of diluted serum, an appropriate amount of substrate solution depending on the final substrate concentration desired, and reaction buffer sufficient to give a total reaction volume of 100 μl. All reaction tubes were incubated for 60 minutes at 37° C. Reactions were terminated by the addition of 1.0 ml. of 0.1 N hydrochloric acid. The reaction mixture was then extracted with 1.0 ml. ethyl acetate, by rotary agitation for 4-5 seconds. The phases were separted by centrifugation at 1000×G for ten minutes. A 0.5 ml. sample of the ethyl acetate (upper) layer was removed and tranferred to a scintillation vial containing 10 ml. scintillation fluid. (Riafluor, Trademark, New England Nuclear Corp., Boston, Mass.)
# A control determination of background radioactivity was made using 50 μl. of reaction buffer instead of diluted serum in the reaction mixture. The purpose of this control was to determine the number of total counts attributable to background radiation, non-specific release of hippuric acid and the presence of unreacted substrate in the ethyl acetate phase. […] Total radioactivity was determined by counting an amount of substrate equal to that used in the reaction mixture directly in the scintillation counter.
# (§2) Reaction velocity, in terms of nanomoles of product formed per minute per ml of serum was calculated according to the following formula: [formula] In this formula, "nmoles" means nanomoles, "min" means minutes, "ml" means milliliters and "cpm" means radioactivity counts per minute. The factor of 2 is a correction for the aliquot size.
# In this series of reactions, the procedure described in Ex. 1 was followed except that the substrate concentration was 8 mM throughout and specific inhibitor substances were added at the indicated final concentration. Bradykinin, angiotensin I, BPP5α and EDTA have been described hereinabove. BPP9α (SQ20881) is a nonapeptide from snake venom having the sequence <GluTryProArgProGlnIleProPro.
# *Standard assay conditions as described in Example 1 were used.
# **ΔCPM = (CPM of compound CPM of Blank)
# [3] = target: T1, angiotensin converting enzyme (ACE); assay: ACE assay: hydrolysis of ^3H-HipGlyGly by human serum, Lineweaver-Burke Km; assay type: biochemical; conditions: when about 20% or more of the substrate has been hydrolyzed
# Protocol: The following sample illustrates the preferred assay method, the sensitivity of the assay and the Km for ^3 H-HipGlyGly. The reaction buffer contains 0.05 M Hepes, 0.1 M sodium chloride and 0.6 M sodium sulphate at pH 8.0. (Pepes is N-2-Hydroxyethyl piperazine N'-2-ethane sulfonic acid.) The substrate, ^3 H-HipGlyGly was dissolved in reaction buffer at a concentration of 16 mM and a specific radioactivity of about 0.15 millicuries/millimole. Serum was prepared from fresh whole blood by standard techniques. […] Hemolyzed samples were not used in the assay. Serum samples could be stored at least for one week at 2° C. to 8° C. or for at least 8 weeks frozen, prior to assaying. For the assay, 50 μl. of serum was diluted with 200 μl. of reaction buffer. All the reactions were carried out in glass tubes due to the potentially destructive action of ethyl acetate on plastic.
# as §1
# (§3) A control determination of background radioactivity was made using 50 μl. of reaction buffer instead of diluted serum in the reaction mixture. The purpose of this control was to determine the number of total counts attributable to background radiation, non-specific release of hippuric acid and the presence of unreacted substrate in the ethyl acetate phase. Less than 7% of the ^3 H-HipGly Gly entered the organic phase. Total radioactivity was determined by counting an amount of substrate equal to that used in the reaction mixture directly in the scintillation counter.
# as §2, with “size. In the case where a significant fraction of substrate has been hydrolyzed, and the substrate in one which is more soluble in the organic phase, as for example, ^125 I-HPPGlyGlyGly, a modified formula is used to take account of the decreasing amount of substrate as the reaction progresses: [formula]” for “size.”
# Reciprocal values of initial substrate concentration and reaction velocity were calculated and graphed according to the method of Lineweaver and Burke, as shown in FIG. 1. A straight line was obtained, which intercepted the ordinate at a value equal to the reciprocal of the maximum velocity of the enzyme reaction and intercepted the abcissa at a value equal to the negative reciprocal of the apparent Michaelis constant. […] It can be seen that reaction velocities as low as 12 nanomoles of substrate hydrolyzed per minute per ml. of serum can readily be measured.
# [4] = Extraction (partition) into ethyl acetate; assay type: physicochemical
# Text: (§4) Reaction conditions optimal for carrying out an ACE catalyzed hydrolysis of a substrate of the present invention are the same as have been previously described for substrates known in the prior art. Detailed studies of optimal conditions using HipGlyGly as substrate have been reported by Dorer, et al. The pH optimum is approximately 8.0 although greater than 50% maximal activity is obtained in the pH range 7.0-9.0, in the presence of 1 M NaCl. […] The relationship between the chloride requirement and the ionic strength requirement has not been fully characterized. […] Phosphate is inhibitory. Hepes, bicine and barbital buffers are suitable for use but Hepes is preferred because it provides maximum activity. Preferred conditions of buffer composition, ionic strength, pH and temperature are described in Example 1. […] The pH range for usable enzyme activity is from pH 6.5 to pH 8.7, with a broad plateau of maximal activity ranging from pH 7.2 to pH 8.5. Optimal substrate concentration depends upon the apparent Km, for the substrate compared with the Km's of possible competing substances in the sample. A substrate having a relatively low Km, such as ^3 H-benzoylProPheArg (Km 2×10^-4 M) could be suitably used at a concentration less than its Km. A substrate having a higher Km might better be used at a concentration greater than its Km. […] Because its Km is the lowest of any of the substrates of the present invention, ^3 H-benzoylProPheArg is the most preferred substrate for assays where ACE activity is low and maximum sensitivity is desired. In addition to being less sensitive to competitive inhibition, assays carried out with this substrate are potentially able to measure lower levels of ACE than the other substrates disclosed herein. Additionally, its partition behavior in an aprotic organic solvent is extremely favorable: only about 3% entered ethyl acetate in a preliminary extraction experiment. The remnant product Benzoylproline was about 90% extracted.
# The remnant reaction product may be extracted from the reaction mixture by an aprotic organic solvent which affords a reasonably quantitative separation of product from substrate. The use of solvents which may interfere with the counting process is to be avoided. Ethyl acetate is preferred. Approximately 91% of ^3 H-Hippuric acid is extracted into ethyl acetate. Extraction may be carried out by any suitable means familiar to those skilled in the art, such as shaking, agitating, mixing and the like. Separation of the phases is conveniently accomplished by centrifugation. Centrifugation at 1000×G for ten minutes is preferred, either at room temperature or in a refrigerated centrifuge. In some cases, an emulsion will form which can be separated by a longer centrifugation step.
# as §3, with “counter. […]” for “counter.”
# [5] = tested on: angiotensin converting enzyme (ACE); assay: ACE-catalyzed hydrolysis: Km, pH, chloride and buffer dependence; assay type: biochemical
# Text: as §4
# [6] = tested on: angiotensin converting enzyme (ACE); conditions: buffer component / additive; cited from earlier work
# [7] = 1 h, read-out: ACE Activity as % of control
compound,measurement,setting,value
CC[C@H](C)[C@H](NC(=O)[C@H](CCC(N)=O)NC(=O)[C@@H]1CCCN1C(=O)[C@H](CCCNC(=N)N)NC(=O)[C@@H]1CCCN1C(=O)[C@H](Cc1c[nH]c2ccccc12)NC(=O)[C@@H]1CCC(=O)N1)C(=O)N1CCC[C@H]1C(=O)N1CCC[C@H]1C(=O)O [BPP9α (SQ20881)],remaining activity at 33 µM,"[1]; 3.3 × 10^-5 M, read-out: ACE Activity As % of Control",28%
same,Δ CPM (counts per minute),"[2]; 2.8 × 10^-9 M, substrate 8 mM",2200 counts per minute
same,Δ CPM (counts per minute),"[2]; 9 × 10^-8 M, substrate 8 mM",1410 counts per minute
same,remaining activity at 0.0028 µM,[2]; [7],58%
same,remaining activity at 0.09 µM,[2]; [7],37%
NCC(=O)NCC(=O)O [GlyGly] (H-Gly-Gly-OH),Product inhibition (in words),[3],Product inhibition has been observed
"[3H]c1ccc(C(=O)NCC(=O)O)cc1 [^3 H-Hippuric acid, Hippuric acid (Benzoyl glycine)]",Fraction extracted into ethyl acetate,[4],Approximately 91%
"Angiotensin I: decapeptide angiotensin I, having the sequence AspArgValTyrIleHisProPheHisLeu (DRVYIHPFHL; printed: AspArgValTyrIleHisProPheHisLeu)",ACE Activity As % of Control,"[1]; 7.1 × 10^-5 M, 71 µM",27 % of Control
same,Δ CPM (counts per minute),"[2]; 4.5 × 10^-5 M, substrate 8 mM",1278 counts per minute
same,ACE Activity as % of control,"[2]; 4.5 × 10^-5 M, substrate 8 mM, 45 µM",34 % of control
same,Δ CPM (counts per minute),"[2]; 9 × 10^-6 M, substrate 8 mM",2557 counts per minute
same,ACE Activity as % of control,"[2]; 9 × 10^-6 M, substrate 8 mM, 9 µM",67 % of control
same,Δ CPM (counts per minute),"[2]; 9 × 10^-7 M, substrate 8 mM",3057 counts per minute
same,ACE Activity as % of control,"[2]; 9 × 10^-7 M, substrate 8 mM, 0.9 µM",81 % of control
same,Mode of inhibition (in words),[2],competitive inhibitors
O=C(O)[C@@H]1CCCN1C(=O)c1ccccc1 [Benzoylproline],Fraction extracted into ethyl acetate,[4],about 90%
"[3H]c1ccc(C(=O)N2CCC[C@H]2C(=O)N[C@@H](Cc2ccccc2)C(=O)N[C@@H](CCCNC(=N)N)C(=O)O)cc1 [^3 H-BenzoylProPheArg, ^3 H-benzoylprolylphenylalanylarginine]",Fraction extracted into ethyl acetate,[4],about 3%
same,Km,[5]; ^3H-benzoylProPheArg as substrate,200 µM
same,Chloride / ionic strength requirement of the ACE-catalyzed hydrolysis,[5]; by substrate,chloride ions and high total ionic strength do not greatly affect the rate
RPPGFSPFR [Bradykinin],remaining activity at 82 µM,"[1]; 8.2 × 10^-5 M, read-out: ACE Activity As % of Control",21%
same,Δ CPM (counts per minute),"[2]; 2.7 × 10^-5 M, substrate 8 mM",1553 counts per minute
same,Δ CPM (counts per minute),"[2]; 2.7 × 10^-6 M, substrate 8 mM",3165 counts per minute
same,Δ CPM (counts per minute),"[2]; 2.7 × 10^-7 M, substrate 8 mM",3267 counts per minute
same,remaining activity at 0.27 µM,[2]; [7],86%
same,remaining activity at 2.7 µM,[2]; [7],83%
same,remaining activity at 27 µM,[2]; [7],41%
same,Mode of inhibition (in words),[2],competitive inhibitors
Phosphate,Inhibition of ACE (in words),[6],inhibitory
"O=C(O)CN(CCN(CC(=O)O)CC(=O)O)CC(=O)O [EDTA, Ethylene diamine tetraacetic acid]",Inhibition of ACE (in words),[6],potent inhibitor of ACE
same,remaining activity at 1000 µM,"[1]; 1 × 10^-3 M, read-out: ACE Activity As % of Control",23%
same,Δ CPM (counts per minute),[2],1178
same,remaining activity at 900 µM,[2]; [7],31%
